# Measured values as given in ChEMBL document CHEMBL1201862, “PubChem BioAssay data set” (2004).
# Active and inactive are the calls of the source.
# Key:
# CAAX prenyl protease 2 = biological target: T1, CAAX prenyl protease 2 (Saccharomyces cerevisiae S288c, UniProt Q03530); type: biochemical
# T1 sequence (Q03530 whole entry): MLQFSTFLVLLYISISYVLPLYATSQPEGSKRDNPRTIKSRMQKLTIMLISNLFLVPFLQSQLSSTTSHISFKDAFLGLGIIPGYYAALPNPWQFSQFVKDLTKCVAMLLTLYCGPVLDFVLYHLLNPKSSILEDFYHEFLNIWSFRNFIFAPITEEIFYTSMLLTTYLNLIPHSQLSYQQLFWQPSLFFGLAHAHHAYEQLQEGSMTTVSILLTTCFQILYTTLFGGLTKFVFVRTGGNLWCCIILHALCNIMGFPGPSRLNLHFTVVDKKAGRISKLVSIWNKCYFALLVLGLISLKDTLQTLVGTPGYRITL
# H4 = experiment: Luminescence Cell-Based Dose Response HTS to Identify Activators of 5'UTR Stem-Loop Driven Prion Protein mRNA Translation in H4 Neuroglioblastoma Cells. [Related pubchem assays: 1829 (Project Summary), 1814 (Primary HTS)]; type: functional; conditions: Homo sapiens
# [1] = biological target: G-protein coupled receptor 35 (Homo sapiens, UniProt Q9HC97); experiment: inhibition of zaprinast-stimulated GPR35 beta-arrestin translocation – imaging, U2OS, beta-arrestin-GFP, zaprinast agonist, primary screen (AID 2058); type: functional;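 note: antagonist potency meaning inhibition of agonist-induced arrestin redistribution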
# Chain of G-protein coupled receptor 35 (Q9HC97 whole entry): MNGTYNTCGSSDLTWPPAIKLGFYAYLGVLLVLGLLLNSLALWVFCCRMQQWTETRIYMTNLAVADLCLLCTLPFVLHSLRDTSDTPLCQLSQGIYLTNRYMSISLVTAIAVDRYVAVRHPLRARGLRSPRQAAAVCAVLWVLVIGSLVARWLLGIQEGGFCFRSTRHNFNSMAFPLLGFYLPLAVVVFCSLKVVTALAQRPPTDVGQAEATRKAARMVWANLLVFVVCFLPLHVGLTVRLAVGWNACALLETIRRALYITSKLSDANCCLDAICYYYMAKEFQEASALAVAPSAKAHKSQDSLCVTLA
# [2] = Luminescence Cell-Based Dose Response HTS to Identify Activators of Luciferase Translation or Activity in H4 […] Cells. [Related pubchem assays: 1829 (Project Summary), 1814 (Primary HTS)]; type: functional
# [3] = biological target: T2, Short transient receptor potential channel 4 (Mus musculus, UniProt Q9QUQ5); experiment: calcium entry via TRPC4 opening agents – cell-based, HEK293 TRPC4/mu-opioid, Fluo-4 calcium, dose response (AID 434937); type: functional
# T2 sequence (Q9QUQ5 whole entry): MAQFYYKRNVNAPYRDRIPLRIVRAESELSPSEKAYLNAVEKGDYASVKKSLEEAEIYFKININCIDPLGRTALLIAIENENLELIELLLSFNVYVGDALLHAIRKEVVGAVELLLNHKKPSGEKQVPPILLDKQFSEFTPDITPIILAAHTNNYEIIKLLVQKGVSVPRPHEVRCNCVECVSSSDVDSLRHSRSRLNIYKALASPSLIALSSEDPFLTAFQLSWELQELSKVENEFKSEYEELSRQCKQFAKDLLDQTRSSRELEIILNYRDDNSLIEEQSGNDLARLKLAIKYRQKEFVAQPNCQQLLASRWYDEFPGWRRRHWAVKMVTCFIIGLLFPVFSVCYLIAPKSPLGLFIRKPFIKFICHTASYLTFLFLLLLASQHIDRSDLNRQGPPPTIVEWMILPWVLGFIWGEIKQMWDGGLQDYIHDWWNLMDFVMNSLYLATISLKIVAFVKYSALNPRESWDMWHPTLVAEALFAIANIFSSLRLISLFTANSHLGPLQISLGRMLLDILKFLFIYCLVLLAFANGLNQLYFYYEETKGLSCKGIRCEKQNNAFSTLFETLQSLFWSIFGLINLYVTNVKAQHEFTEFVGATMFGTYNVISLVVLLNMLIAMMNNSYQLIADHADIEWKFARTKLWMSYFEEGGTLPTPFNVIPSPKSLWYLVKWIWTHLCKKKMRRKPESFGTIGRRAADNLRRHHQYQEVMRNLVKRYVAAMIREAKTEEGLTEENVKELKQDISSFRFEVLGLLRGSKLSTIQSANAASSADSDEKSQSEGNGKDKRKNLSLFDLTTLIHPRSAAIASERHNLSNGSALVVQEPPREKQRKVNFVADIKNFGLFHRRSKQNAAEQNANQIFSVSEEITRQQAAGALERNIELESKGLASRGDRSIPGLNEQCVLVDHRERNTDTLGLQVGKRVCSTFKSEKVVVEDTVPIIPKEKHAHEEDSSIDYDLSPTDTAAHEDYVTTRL
# [4] = Luminescence Cell-Based Dose Confirmation HTS to Identify Activators of 5'UTR Stem-Loop Driven Alpha-Synuclein mRNA Translation in H4 Neuroglioblastoma Cells. [Related pubchem assays: 1829 (Project Summary), 1814 (Primary HTS)]; type: functional
# [5] = biological target: Glyceraldehyde-3-phosphate dehydrogenase (Homo sapiens, UniProt P04406)
# Chain of Glyceraldehyde-3-phosphate dehydrogenase (P04406 whole entry): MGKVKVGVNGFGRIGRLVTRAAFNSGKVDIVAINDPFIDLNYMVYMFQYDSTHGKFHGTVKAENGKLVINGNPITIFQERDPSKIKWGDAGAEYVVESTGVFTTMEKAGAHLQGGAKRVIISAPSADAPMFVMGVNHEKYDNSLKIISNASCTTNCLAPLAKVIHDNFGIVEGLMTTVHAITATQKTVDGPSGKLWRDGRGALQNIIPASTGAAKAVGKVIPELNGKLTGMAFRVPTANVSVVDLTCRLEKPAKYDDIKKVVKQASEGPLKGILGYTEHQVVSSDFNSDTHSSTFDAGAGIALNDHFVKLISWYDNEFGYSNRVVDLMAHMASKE
# [6] = biological target: T3, Alkaline phosphatase, tissue-nonspecific isozyme (Homo sapiens, UniProt P05186); experiment: potency against alkaline phosphatase TNAP – biochemical, luminescent, dose response, SAR follow-up (AID 1056)
# T3 sequence (P05186 whole entry): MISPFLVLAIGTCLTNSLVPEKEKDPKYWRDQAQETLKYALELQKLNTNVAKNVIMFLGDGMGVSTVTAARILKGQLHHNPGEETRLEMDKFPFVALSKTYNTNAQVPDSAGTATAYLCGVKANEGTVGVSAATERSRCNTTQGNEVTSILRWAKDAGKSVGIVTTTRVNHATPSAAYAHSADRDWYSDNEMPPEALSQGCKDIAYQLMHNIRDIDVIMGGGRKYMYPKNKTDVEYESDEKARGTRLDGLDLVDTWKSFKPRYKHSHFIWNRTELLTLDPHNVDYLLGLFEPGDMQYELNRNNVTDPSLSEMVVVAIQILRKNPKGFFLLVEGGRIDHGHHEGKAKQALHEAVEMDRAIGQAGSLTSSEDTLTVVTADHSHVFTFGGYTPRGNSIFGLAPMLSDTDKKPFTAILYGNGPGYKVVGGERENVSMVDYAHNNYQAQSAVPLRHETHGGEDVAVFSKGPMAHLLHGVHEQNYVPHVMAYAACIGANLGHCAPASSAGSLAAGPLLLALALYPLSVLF
# [7] = HepG2 cell cytotoxicity, dose response, cytotoxicity control for non-replicating M. tuberculosis project (AID 489018); type: functional; conditions: Mycobacterium tuberculosis
# [8] = Vero E6 cell cytotoxicity, dose response, cytotoxicity control for non-replicating M. tuberculosis project, secondary assay (AID 492998); type: functional, VeroE6; conditions: Vero C1008
# [9] = THP-1 cell cytotoxicity, dose response, cytotoxicity control for non-replicating M. tuberculosis project (AID 489025); type: functional
# [10] = system: Streptococcus sp. 'group A'; experiment: Streptococcus pyogenes SK(-)GAS viability under kanamycin – luminescence, BacTiterGlo, confirmation, counter-screen for streptokinase expression inhibitor project, dose response (AID 1900); type: functional, organism-based
# cells = type: functional
# Streptococcus = experiment: GAS UMAA2166 growth inhibition – luminescence, BacTiterGlo, counter-screen for streptokinase expression inhibitor project, dose response (AID 1915); type: functional, organism-based;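 note: potency for reduction of bacterial viability or growth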
# Estrogen receptor = biological target: T4, Estrogen receptor (Homo sapiens, UniProt P03372);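 note: potency for inhibiting coactivator peptide recruitment to the receptor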
# T4 sequence (P03372 whole entry): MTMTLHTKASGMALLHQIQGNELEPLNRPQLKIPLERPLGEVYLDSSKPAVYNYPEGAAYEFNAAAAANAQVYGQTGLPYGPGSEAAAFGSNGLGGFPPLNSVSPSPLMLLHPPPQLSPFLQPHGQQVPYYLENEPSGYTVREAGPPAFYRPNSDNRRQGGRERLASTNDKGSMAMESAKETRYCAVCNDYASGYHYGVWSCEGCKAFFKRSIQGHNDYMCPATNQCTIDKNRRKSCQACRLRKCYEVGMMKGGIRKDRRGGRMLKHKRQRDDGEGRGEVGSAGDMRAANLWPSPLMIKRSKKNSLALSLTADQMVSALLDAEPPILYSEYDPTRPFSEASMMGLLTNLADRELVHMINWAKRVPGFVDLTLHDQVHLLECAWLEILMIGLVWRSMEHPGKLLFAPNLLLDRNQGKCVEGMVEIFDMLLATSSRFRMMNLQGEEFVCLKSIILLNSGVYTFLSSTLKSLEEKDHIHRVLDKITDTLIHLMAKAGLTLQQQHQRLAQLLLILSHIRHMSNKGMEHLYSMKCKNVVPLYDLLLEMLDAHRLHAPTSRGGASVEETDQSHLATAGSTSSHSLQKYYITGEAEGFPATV
# Troponin, cardiac muscle = Troponin, cardiac muscle (Homo sapiens, UniProt P19429+P45379+P63316); experiment: Fluorescence-based biochemical high throughput dose response assay for activators of the calcium sensitivity of cardiac Regulated Thin Filaments (RTF). [Related pubchem assays (depositor defined):AID493008, AID493018, AID504382, AID504383]; type: protein-complex assay
# [11] = biological target: T5, Heat shock factor protein 1 (Mus musculus, UniProt P38532); experiment: enhancement of HSF1-driven luciferase signal – cell-based, NIH3T3, luminescence, dose retest, confirmation (AID 435004); type: functional;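 note: stress induced by proteasome inhibitor MG132 added 30 min after compound; luciferase reporter driven by HSF1 response element in NIH3T3 cells; actives raise luminescence as potentiators of the MG132 stress response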
# T5 sequence (P38532 whole entry): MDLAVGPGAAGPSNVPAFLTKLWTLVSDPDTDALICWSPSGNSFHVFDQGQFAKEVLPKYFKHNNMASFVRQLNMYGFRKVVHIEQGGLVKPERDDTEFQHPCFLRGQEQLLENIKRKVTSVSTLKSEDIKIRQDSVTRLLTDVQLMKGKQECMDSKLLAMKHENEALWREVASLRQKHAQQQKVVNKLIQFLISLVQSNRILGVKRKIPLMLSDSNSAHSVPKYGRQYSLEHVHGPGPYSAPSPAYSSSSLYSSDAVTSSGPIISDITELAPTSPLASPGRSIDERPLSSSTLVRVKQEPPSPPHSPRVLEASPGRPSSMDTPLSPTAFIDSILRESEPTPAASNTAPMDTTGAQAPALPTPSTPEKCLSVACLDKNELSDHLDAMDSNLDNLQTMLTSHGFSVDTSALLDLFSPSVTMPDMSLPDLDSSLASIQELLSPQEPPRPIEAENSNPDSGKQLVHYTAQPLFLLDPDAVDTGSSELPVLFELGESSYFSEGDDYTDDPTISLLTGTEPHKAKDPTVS
# Trypsin = Trypsin (Sus scrofa, UniProt P00761); experiment: trypsin protease activity blockade – biochemical, quenched peptide fluorescence, cherry-pick, selectivity assay for Rce1 protease inhibitor project, dose response (AID 488789)
# Chain of Trypsin (P00761 whole entry): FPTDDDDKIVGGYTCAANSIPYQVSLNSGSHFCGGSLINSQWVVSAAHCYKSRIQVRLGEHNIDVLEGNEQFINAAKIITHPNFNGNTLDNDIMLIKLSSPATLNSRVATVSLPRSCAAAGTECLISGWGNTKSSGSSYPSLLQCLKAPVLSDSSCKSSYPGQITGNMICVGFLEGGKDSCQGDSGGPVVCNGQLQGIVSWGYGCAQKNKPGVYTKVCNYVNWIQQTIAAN
# Beta-galactosidase = Beta-galactosidase (Escherichia coli, UniProt Q8VNN2); experiment: Dose response counterscreen for EBI2 assay utilizing the enzyme, b-galactosidase.; type: functional
# Chain of Beta-galactosidase (Q8VNN2 whole entry): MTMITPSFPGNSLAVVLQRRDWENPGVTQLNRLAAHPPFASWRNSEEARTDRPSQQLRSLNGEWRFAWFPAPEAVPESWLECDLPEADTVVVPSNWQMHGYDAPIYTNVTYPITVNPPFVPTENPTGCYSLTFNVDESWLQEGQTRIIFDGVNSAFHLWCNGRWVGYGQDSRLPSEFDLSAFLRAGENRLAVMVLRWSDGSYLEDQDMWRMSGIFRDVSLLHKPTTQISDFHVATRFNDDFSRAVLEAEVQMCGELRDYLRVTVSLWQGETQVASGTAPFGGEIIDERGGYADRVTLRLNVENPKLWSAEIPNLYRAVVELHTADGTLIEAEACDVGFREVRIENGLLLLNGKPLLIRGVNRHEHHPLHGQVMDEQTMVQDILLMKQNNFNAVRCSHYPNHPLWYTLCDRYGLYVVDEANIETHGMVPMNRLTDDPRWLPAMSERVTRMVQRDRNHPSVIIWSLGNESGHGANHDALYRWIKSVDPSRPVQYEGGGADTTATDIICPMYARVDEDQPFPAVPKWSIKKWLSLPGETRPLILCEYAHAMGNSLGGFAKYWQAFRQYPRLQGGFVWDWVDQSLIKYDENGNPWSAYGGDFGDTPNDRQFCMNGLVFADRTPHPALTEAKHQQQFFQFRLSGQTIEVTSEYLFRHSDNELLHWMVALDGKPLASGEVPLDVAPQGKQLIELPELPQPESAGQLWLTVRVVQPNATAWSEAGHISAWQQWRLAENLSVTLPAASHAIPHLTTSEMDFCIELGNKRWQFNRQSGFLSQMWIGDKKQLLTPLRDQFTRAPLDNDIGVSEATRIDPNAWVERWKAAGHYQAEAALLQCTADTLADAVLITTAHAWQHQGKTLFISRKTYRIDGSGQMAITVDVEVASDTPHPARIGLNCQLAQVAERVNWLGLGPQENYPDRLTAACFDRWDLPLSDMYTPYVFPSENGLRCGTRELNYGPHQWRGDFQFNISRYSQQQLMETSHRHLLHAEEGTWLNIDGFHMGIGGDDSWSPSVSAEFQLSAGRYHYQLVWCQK
# [12] = biological target: G-protein coupled receptor 55 (Homo sapiens, UniProt Q9Y2T6); experiment: selective activators of receptor GPR55 – imaging, U2OS cells, beta-arrestin-GFP redistribution, primary screen (AID 1961); type: functional
# Chain of G-protein coupled receptor 55 (Q9Y2T6 whole entry): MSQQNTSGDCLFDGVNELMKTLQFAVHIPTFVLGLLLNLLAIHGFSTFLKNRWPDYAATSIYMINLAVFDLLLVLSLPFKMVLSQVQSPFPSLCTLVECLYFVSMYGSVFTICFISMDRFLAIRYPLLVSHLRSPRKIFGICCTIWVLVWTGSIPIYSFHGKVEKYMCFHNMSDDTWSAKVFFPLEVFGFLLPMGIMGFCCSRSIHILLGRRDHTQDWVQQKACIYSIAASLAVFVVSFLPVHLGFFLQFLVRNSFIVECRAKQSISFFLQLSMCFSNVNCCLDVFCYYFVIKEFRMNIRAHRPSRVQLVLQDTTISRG
# [13] = NIH-3T3 fibroblast cytotoxicity, dose response, cytotoxicity control, cell-based, fluorescence, Alamar Blue, secondary assay (AID 2327); type: functional;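 note: NIH-3T3 mouse fibroblasts cultured with fluconazole at 8 µg/mL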
# [14] = fluconazole-exposed Candida albicans growth modulators – fluorescence, retest, confirmation (AID 2467); type: functional, cell-based
# [15] = biological target: Alkaline phosphatase, placental type (Homo sapiens, UniProt P05187); experiment: human placental alkaline phosphatase inhibition – biochemical, luminescence, confirmation (AID 1512); type: functional
# Chain of Alkaline phosphatase, placental type (P05187 whole entry): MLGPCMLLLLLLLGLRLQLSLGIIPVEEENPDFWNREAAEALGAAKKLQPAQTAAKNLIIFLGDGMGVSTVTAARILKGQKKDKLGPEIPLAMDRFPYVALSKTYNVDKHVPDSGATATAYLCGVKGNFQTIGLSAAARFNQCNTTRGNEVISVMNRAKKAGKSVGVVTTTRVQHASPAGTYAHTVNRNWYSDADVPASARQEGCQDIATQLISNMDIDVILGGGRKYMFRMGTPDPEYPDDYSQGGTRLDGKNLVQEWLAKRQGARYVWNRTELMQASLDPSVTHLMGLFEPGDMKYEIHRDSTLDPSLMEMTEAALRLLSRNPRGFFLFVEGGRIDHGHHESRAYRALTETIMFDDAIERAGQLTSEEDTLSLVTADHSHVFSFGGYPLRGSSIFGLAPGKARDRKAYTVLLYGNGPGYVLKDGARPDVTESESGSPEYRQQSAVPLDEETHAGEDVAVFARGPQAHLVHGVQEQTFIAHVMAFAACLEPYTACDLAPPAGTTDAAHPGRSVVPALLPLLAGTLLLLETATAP
# Protein skinhead-1 = biological target: T6, Protein skinhead-1 (Caenorhabditis elegans, UniProt P34707); type: functional
# T6 sequence (P34707 whole entry): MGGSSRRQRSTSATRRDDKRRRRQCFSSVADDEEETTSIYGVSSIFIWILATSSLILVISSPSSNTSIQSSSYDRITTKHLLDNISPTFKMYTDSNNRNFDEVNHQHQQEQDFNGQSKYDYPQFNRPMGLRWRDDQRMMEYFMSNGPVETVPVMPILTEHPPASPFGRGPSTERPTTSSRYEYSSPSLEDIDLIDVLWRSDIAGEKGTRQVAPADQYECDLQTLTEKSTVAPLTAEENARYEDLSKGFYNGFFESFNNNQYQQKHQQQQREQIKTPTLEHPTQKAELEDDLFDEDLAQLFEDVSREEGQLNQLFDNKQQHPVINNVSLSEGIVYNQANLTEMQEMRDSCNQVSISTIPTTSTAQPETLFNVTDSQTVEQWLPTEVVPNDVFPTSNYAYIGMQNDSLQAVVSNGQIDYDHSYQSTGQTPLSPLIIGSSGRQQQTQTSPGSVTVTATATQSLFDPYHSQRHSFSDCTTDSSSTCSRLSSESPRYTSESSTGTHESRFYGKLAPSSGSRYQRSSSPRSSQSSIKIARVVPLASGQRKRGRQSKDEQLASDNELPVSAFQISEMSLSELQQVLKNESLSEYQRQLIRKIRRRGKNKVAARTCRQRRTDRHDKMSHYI
structure (smiles),measurement,setting,value
O=C1CCN(Cc2ccccc2)CCN1[C@H](CSc1ccccc1)Cc1ccccc1,AC50,CAAX prenyl protease 2,13.9 µM (active)
CN(C)c1ccc(-c2sc(Nc3ccccc3)n[n+]2-c2ccc(F)cc2)cc1,EC50,H4,> 120 µM (not active)
same,IC50,[1],1.33 µM (active)
same,EC50,[2],17.8 µM (active)
same,EC50,[3],10.6 µM (active)
same,EC50,[4],> 120 µM (not active)
COc1ccc(OC)c(NS(=O)(=O)c2cccc3cccnc23)c1,IC50,[5],> 100 µM (not active)
same,IC50,[6],> 100 µM (inactive)
CCOC(=O)Cc1c(C)nc2c(-c3cccc(Br)c3)cnn2c1O,CC50,[7],16.4 µM (active)
same,CC50,[8],8.15 µM (active)
same,CC50,[9],11.9 µM (active)
same,EC50,[10],3.46 µM (active)
same,IC50,cells,3.08 µM (active)
same,EC50,Streptococcus,6.07 µM (active)
COc1ccc(C2CC(c3c(O)nc4ccc(Cl)cc4c3-c3ccccc3)=NN2S(C)(=O)=O)cc1OC (stereo not drawn),IC50,Estrogen receptor,12.4 µM (active)
CCOC(=O)c1sc2nc(C)nc(SCC(=O)NC3CCS(=O)(=O)C3)c2c1C (stereo not drawn),EC50,"Troponin, cardiac muscle",> 71.5 µM (inactive)
same,EC50,[11],> 260 µM (inactive)
COc1ccc(C(C(=O)NC2CCCCC2)N(C(=O)c2snc(C(N)=O)c2N)c2ccc(OC)cc2OC)cc1 (stereo not drawn),AC50,Trypsin,21.6 µM (active)
same,AC50,CAAX prenyl protease 2,22.1 µM (active)
same,IC50,Beta-galactosidase,> 80 µM (inactive)
O=C(Nc1nc2ccccc2s1)c1ccc(N2CCCCC2)c([N+](=O)[O-])c1,IC50,[1],1.12 µM (active)
Cc1ccccc1OCCC(=O)Nc1cc(S(=O)(=O)N2CCOCC2)ccc1OC(C)C,EC50,[12],4.27 µM (active)
COc1cc(OC)cc(C(=O)Oc2c(CN3CCOCC3)cc(Cl)c3cccnc23)c1,CC50,[7],17 µM (active)
same,EC50,[13],> 150 µM (inconclusive)
same,CC50,[8],3.74 µM (active)
same,CC50,[9],7.27 µM (active)
same,IC50,cells,15.4 µM (active)
same,EC50,[14],2.94 µM (active)
O=C(CN1CCCCC1)c1ccc(O)c(O)c1,IC50,[15],67.5 µM (active)
same,IC50,[6],43.2 µM (active)
O=S(=O)(/N=C(\Sc1ccc(Cl)cc1)c1ccccc1)c1ccccc1,IC50,Estrogen receptor,> 50 µM (not active)
CCN(CC)c1ccc(/C=c2\sc3nc4ccccc4n3c2=O)c(O)c1,EC50,"Troponin, cardiac muscle",2.78 µM (active)
same,IC50,Protein skinhead-1,> 100 µM (inactive)
